Where “and” joins values, the source holds several entries; their conditions need not be identical. Identical values can stand only once.
Columns and labels:
[1] = Body weight, general health and survival of BBN mice, Experiment 1; assay type: in vivo
Method: (§1) All animals received BBN(N-butyl-N-(4-hydroxybutyl)-nitrosamine, TCI America, Portland, Oreg.) 0.05% in water in brown bottles for 22 weeks. BBN is known to induce cancer in the bladder. Mice were treated with either the CPSI compounds or vehicle for weeks 16-22. Timing of dosing was intended to correspond with the timeframe of tumor progression from CIS to invasive disease, as determined in prior experiments.
(§2) Thirty 3-month old male mice (n=10/group) were gavage fed either vehicle (PEG 300, methylcellulose) (control group), CPSI-2705, or CPSI-1306 at 25 mg/kg for weeks 16-22.
Animals were inspected daily for general health with weights recorded at least biweekly and more frequently in the last several weeks based on recorded weight loss. Animals were euthanized by CO2 inhalation and cervical dislocation. Bladders were harvested, weighed, placed in PBS/formaldehyde for 24 hours and then transferred to PBS. Upper tracts (kidney and ureters) were inspected for hydronephrosis. Bladders were assessed for tumor stage and grade and amount of pathologic involvement with invasive disease. […] Bladders were step sectioned, embedded in paraffin, serially sectioned and stained with H&E and assessed for tumor stage and grade and amount of pathologic involvement with invasive disease. […]

[2] = system: BBN model of bladder cancer; experiment: BBN model of bladder cancer, Experiment 1: bladder weight and pathology after oral gavage; assay type: in vivo, C57Bl/6 mice; settings: for average bladder weight: Experiment 1, 25 mg/kg gavage weeks 16-22, control 0.5±0.5 gm; for mean of tissue involved with invasive disease (tumor burden) / upper tract obstruction (hydro-ureteronephrosis) at euthanasia: Experiment 1, 25 mg/kg gavage; for mean of tissue involved with invasive disease (tumor burden): SD ±30% (2705), ±32% (1306), control 81%; for upper tract obstruction (hydro-ureteronephrosis) at euthanasia: majority of control animals obstructed; for mean percentage of tumors representing invasive disease (FIG. 4E) / representative bladder tumor stage on H&E pathology: Experiment 1, 25 mg/kg; for mean percentage of tumors representing invasive disease (FIG. 4E): in words; for representative bladder tumor stage on H&E pathology: vehicle group infiltrative pT3 cancer; for Pieces involved / Pieces involved, in situ % / Pieces involved, inv % (invasive) / Squamous met and normal: Table 1, individual animal bladders, 25 mg/kg gavage weeks 16-22, 25 mg/kg
Method: (§3) Three-month old C57Bl/6 mice were purchased from Jackson Laboratories (Bar Harbor, Me.) and Charles River (Wilmington, Mass.). The animals were maintained at the University of Connecticut Center for Laboratory Animal Care under National Institutes of Health guidelines. All procedures were approved by an institutional animal care committee. The mice were housed in a controlled environment with a 12 hour light-12 hour dark cycle and provided food and water ad libitum.
as §1, §2
(§4) Animals were inspected daily for general health with weights recorded at least biweekly and more frequently in the last several weeks based on recorded weight loss. Animals were euthanized by CO2 inhalation and cervical dislocation. Bladders were harvested, weighed, placed in PBS/formaldehyde for 24 hours and then transferred to PBS. Upper tracts (kidney and ureters) were inspected for hydronephrosis. Bladders were assessed for tumor stage and grade and amount of pathologic involvement with invasive disease. Bladders were sectioned in the mid-sagital plane, laid flat on the medial surface and step sectioned for whole mount pathologic analysis. Haematoxylin and eosin (H&E) staining was carried out to assess for histology and pathology. Bladders were step sectioned, embedded in paraffin, serially sectioned and stained with H&E and assessed for tumor stage and grade and amount of pathologic involvement with invasive disease. A single pathologist reviewed all slides in a blinded manner to provide a pathological diagnosis. As a tumor develops in the bladder, the size and weight of the bladder increases. Bladder weight is therefore a useful surrogate for bladder tumor burden, representing the relative amount of bladder tumor that develops during continual exposure to the carcinogen, BBN.
(§5) Values shown are means±SEM. […] Statistical analysis was performed using SPSS® version 2.03 (San Rafael, Calif.). Differences were examined by one-way analysis of variance (ANOVA) followed by the post-hoc Dunnett's test.

[3] = system: BBN model of bladder cancer; experiment: BBN model of bladder cancer, Experiment 2: escalating dose of CPSI-1306; assay type: in vivo, C57Bl/6 mice; settings: for mean bladder weights at euthanasia as surrogate for tumor volume, effect vs vehicle: p<0.05 Dunnett post-hoc
Method: as §3, §1
Sixty 3-month old male mice (n=˜8/group) were gavage fed an escalating dose of CPSI-1306 (0.001, 0.01, 0.1, 1.0, 10 or 25 mg/kg) or vehicle (PEG 400, H2O) for weeks 16-22.
as §4, §5

[4] = Experiment 2, dose escalation, in words

Compound	animals died prior to completion of the study ([1]; Experiment 1, n=10/group, 25 mg/kg gavage, control also two)	average bladder weight [2]	mean of tissue involved with invasive disease (tumor burden) [2]	upper tract obstruction (hydro-ureteronephrosis) at euthanasia [2]	mean percentage of tumors representing invasive disease (FIG. 4E) [2]	representative bladder tumor stage on H&E pathology [2]	Pieces involved [2]	Pieces involved, in situ % [2]	Pieces involved, inv % (invasive) [2]	Squamous met and normal [2]	general health appearance during drug treatment ([1]; Experiment 1, 25 mg/kg gavage, compared to the other two treatment arms)	mean bladder weight, fold less than control group ([2]; Experiment 1, FIG. 1, p=0.06)	mean bladder weights at euthanasia as surrogate for tumor volume, effect vs vehicle ([3]; Experiment 2, 0.1 mg/kg gavage weeks 16-22)	mean bladder weights at euthanasia as surrogate for tumor volume, effect vs vehicle ([3]; Experiment 2, 1.0 mg/kg gavage weeks 16-22)	mean percentage of tumor representing invasive disease (FIG. 5B) [3, 4]	percentage of bladders in each dosing group with each pathologic stage (FIG. 5A) [3, 4]
CN(C(=O)C[C@H]1CC(c2ccc(Cl)cc2)=NO1)C1CCCCC1 [CPSI-2705]	Two	0.3±0.3 gm	62%	Fewer animals were noted to have obstruction	Smaller tumors with a smaller percentage of invasiveness	pT1 disease	8 (3×) and 2 (2×) and 6 and 4 (2×) and 1 − inv, 3 − in situ and 10	10% (2×) and 5% (2×) and 20%	80% and 85% and (60%) and (70%) and 60% and (30%) and 10% and 30% and (95%) (2×)	10% (2×) and 40% and 30% (2×) and 70% (2×) and 65% and <5% (2×)	–	–	–	–	–	–
O=C(C[C@H]1CC(c2ccc(F)cc2F)=NO1)N1CCOCC1 [CPSI-1306]	–	0.2±0.2 gm	59%	none seen	Smaller tumors with a smaller percentage of invasiveness	focal pT3 with areas of normal mucosa	4 (6×) and 2 and 7 and 6 and 3 − inv, 1 − in situ	5% (2×) and (15 + 15%) and 10% (2×) and 15%	25% and (15 + 15%) and (20%) and (90%) (2×) and (95%) and 35% and 70% and 80% and 65%	70% (2×) and 80% and 10% (3×) and <5% and 55% and 25% and 20%	appeared healthier	2.5 fold	significant effect	significant effect	Smaller tumors with a smaller percentage of invasiveness	A decrease in the percentage of higher stage tumors
